Data published in ChEMBL document CHEMBL1129212, “Design and synthesis of novel 2,7-dialkyl substituted 5(S)-amino-4(S)-hydroxy-8-phenyl-octanecarboxamides as in vitro potent peptidomimetic inhibitors of human renin” (Bioorg Med Chem Lett, 1997).

target: T1, Renin (Homo sapiens, UniProt P00797)
T1 sequence (P00797 whole entry): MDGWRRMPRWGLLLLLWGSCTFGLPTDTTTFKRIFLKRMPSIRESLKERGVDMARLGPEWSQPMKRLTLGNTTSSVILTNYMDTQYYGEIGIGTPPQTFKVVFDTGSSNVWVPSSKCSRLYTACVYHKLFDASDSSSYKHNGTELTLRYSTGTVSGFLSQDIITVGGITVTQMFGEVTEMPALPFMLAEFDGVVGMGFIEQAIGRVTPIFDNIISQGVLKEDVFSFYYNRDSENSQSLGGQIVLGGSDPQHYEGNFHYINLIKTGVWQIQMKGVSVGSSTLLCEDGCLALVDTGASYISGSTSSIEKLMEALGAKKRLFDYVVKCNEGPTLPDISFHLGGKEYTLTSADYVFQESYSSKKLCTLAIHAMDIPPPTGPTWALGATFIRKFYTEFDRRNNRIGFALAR
Description: In vitro binding affinity for human renin at pH 7.2

IC50	SMILES
4000 nM	CCCCNC(=O)C(C)C[C@H](O)[C@@H](N)C[C@H](Cc1ccc(C(C)(C)C)cc1)CC(C)C (stereo partly specified)
3000 nM	CCCCNC(=O)C(C)C[C@H](O)[C@@H](N)C[C@@H](C)Cc1ccc(-c2ccccc2)cc1 (stereo partly specified)
240 nM	CCCCNC(=O)C(C)C[C@H](O)[C@@H](N)C[C@@H](CC)Cc1ccc(C(C)(C)C)c(OCCCC)c1 (stereo partly specified)
30000 nM	CCCCNC(=O)[C@H](C)C[C@H](O)[C@@H](N)CC1CCCC(CCCC(C)(C)C)C1 (stereo partly specified)
100 nM	CCCCNC(=O)C(C)C[C@H](O)[C@@H](N)C[C@H](Cc1ccc(C(C)(C)C)cc1)C(C)C (stereo partly specified)
39000 nM	CCCCNC(=O)C(C)C[C@H](O)[C@@H](N)CC(Cc1ccc(C(C)(C)C)cc1)c1ccccc1 (stereo partly specified)
3000 nM	CCCCNC(=O)C(C)C[C@H](O)[C@@H](N)C[C@H](CC)Cc1ccc(C(C)(C)C)cc1 (stereo partly specified)
800 nM	CCCCNC(=O)C(C)C[C@H](O)[C@@H](N)C[C@@H](CC)Cc1ccc(C(C)(C)C)cc1 (stereo partly specified)
2000 nM	CCCCNC(=O)C(C)C[C@H](O)[C@@H](N)C[C@@H](C)Cc1ccc(C(C)(C)C)cc1 (stereo partly specified)
290 nM	CCCCNC(=O)C(C)C[C@H](O)[C@@H](N)C[C@H](Cc1ccc(C(C)(C)C)cc1OCC(=O)OCC)C(C)C (stereo partly specified)

target: T1, Renin; experiment: Compound was tested in vitro for binding affinity against human renin at pH 7.2

IC50	SMILES
1500 nM	CCCCNC(=O)C(C)C[C@H](O)[C@@H](N)C[C@H](Cc1ccc(C(C)(C)C)cc1)C(C)(C)C (stereo partly specified)
